Reference: patent US20240041042A1, “1-(PYRIDYL)-5-AZINYLPYRAZOLE DERIVATIVES, AND THEIR USE FOR CONTROL OF UNDESIRED PLANT GROWTH” (Bayer Aktiengesellschaft, priority 2020, published 2024)
Read-outs that look alike come from different tables or passages of the source.

Key:
Assay type in all cases: in vivo
[1] = test system: Alopecurus myosuroides (ALOMY); test: Pre-emergence herbicidal action against ALOMY; details: scored visually after about 3 weeks, 100% = plants have died
Outline: (§1)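 Greenhouse pot trial: seeds sown, soil-covered, sprayed before emergence with compound in water (0.5% additive; 600 l/ha; ≤320 g/ha). Scoring visual, ~3 weeks, 0–100% scale vs untreated.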

Zea mays (ZEAMX) = test system: Zea mays (ZEAMX)
Outline: (§2)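 Greenhouse crops in sandy loam sprayed post-emergence at the one-leaf stage, 2–3 weeks after sowing, with WP or EC formulations in water plus 0.5% additive at 600 l/ha. Damage rated visually about 3 weeks later versus untreated controls (0% = like control, 100% = dead); suffixes a–c denote different doses.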

Oryza sativa (ORYSA) = details: crop plant compatibility
Outline: as §2

Lolium rigidum (LOLRI) [2] = test: Pre-emergence herbicidal action against LOLRI
Outline: as §1

[3] = test system: Verconica persica (VERPE); test: Post-emergence herbicidal action against VERPE
Outline: (§3)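 Values are percent visual activity (0% like control, 100% plants dead) after about 3 weeks in the greenhouse. Treatment: post-emergence spray at one-leaf stage, 600 l/ha spray volume, 0.5% additive, doses 320 g/ha or lower.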

Setaria viridis (SETVI) [4] = test: Post-emergence herbicidal action against SETVI
Outline: as §3

Lolium rigidum (LOLRI) [5] = test: Post-emergence herbicidal action against LOLRI
Outline: as §3

[6] = test system: Pharbitis purpurea (PHBPU); test: Post-emergence herbicidal action against PHBPU
Outline: as §3

[7] = test system: Abutilon theophrasti (ABUTH); test: Pre-emergence herbicidal action against ABUTH; details: 100% = plants have died
Outline: as §1

[8] = test system: Echinochloa crus-galli (ECHCG); test: Post-emergence herbicidal action against ECHCG
Outline: as §3

[9] = test system: Verconica persica (VERPE); test: Pre-emergence herbicidal action against VERPE
Outline: as §1

[10] = test system: Echinochloa crus-galli (ECHCG); test: Pre-emergence herbicidal action against ECHCG
Outline: as §1

[11] = test system: Alopecurus myosuroides (ALOMY); test: Post-emergence herbicidal action against ALOMY; details: visual rating about 3 weeks after treatment vs untreated controls (100% = plants have died, 0% = like control plants)
Outline: as §3

Viola tricolor (VIOTR) [12] = test: Pre-emergence herbicidal action against VIOTR
Outline: as §1

[13] = test system: Pharbitis purpurea (PHBPU); test: Pre-emergence herbicidal action against PHBPU; details: dosage 320 g/ha
Outline: as §1

Avena fatua (AVEFA) [14] = test: Pre-emergence herbicidal action against AVEFA; details: 320 g/ha, visual scoring after about 3 weeks vs untreated controls
Outline: as §1

[15] = test system: Amaranthus retroflexus (AMARE); test: Pre-emergence herbicidal action against AMARE; details: visual scoring after about 3 weeks vs untreated controls
Outline: as §1

[16] = test system: Amaranthus retroflexus (AMARE); test: Post-emergence herbicidal action against AMARE
Outline: as §3

[17] = test system: Polygonum convolvulus (POLCO); test: Pre-emergence herbicidal action against POLCO
Outline: as §1

[18] = test system: Abutilon theophrasti (ABUTH); test: Post-emergence herbicidal action against ABUTH; details: visual rating about 3 weeks after treatment vs untreated controls (100% = plants have died, 0% = like control plants)
Outline: as §3

Avena fatua (AVEFA) [19] = test: Post-emergence herbicidal action against AVEFA; details: visual rating about 3 weeks after treatment
Outline: as §3

[20] = test system: Matricaria inodora (MATIN); test: Pre-emergence herbicidal action against MATIN
Outline: as §1

[21] = test system: Matricaria inodora (MATIN); test: Post-emergence herbicidal action against MATIN
Outline: as §3

Setaria viridis (SETVI) [22] = test: Pre-emergence herbicidal action against SETVI
Outline: as §1

[23] = test system: Polygonum convolvulus (POLCO); test: Post-emergence herbicidal action against POLCO
Outline: as §3

Viola tricolor (VIOTR) [24] = test: Post-emergence herbicidal action against VIOTR
Outline: as §3

[25] = 80 g/ha, effect in comparison to untreated controls
[26] = Dosage column 320 g/ha (title prints 3200 g/ha), scored visually after about 3 weeks
[27] = 80 g/ha, visual rating about 3 weeks after treatment vs untreated controls (100% = plants have died, 0% = like control plants)

For `COC(=O)[C@H](C)COC(=O)COc1nn(-c2ccccn2)c(-c2ccc(F)nc2)c1Br` [Example I-76], the “Pre-emergence action against ALOMY” value ([1]; 80 g/ha) was 90%, the “Pre-emergence action against ALOMY” value ([1]; 320 g/ha) was 100% and the “Post-emergence action against ZEAMX in % (crop plant compatibility)” value (Zea mays (ZEAMX); 20 g/ha, ZEAMX, effect in comparison to untreated controls) was 20%. The “Post-emergence action against ORYSA in %” value (Oryza sativa (ORYSA); 20 g/ha, effect vs untreated controls) was 0%, the “Post-emergence action against ORYSA in %” value (Oryza sativa (ORYSA); [25]) was 0% and the “Pre-emergence action against LOLRI in %” value (Lolium rigidum (LOLRI) [2]; dosage 80 g/ha) was 90%. The “Pre-emergence action against LOLRI in %” value (Lolium rigidum (LOLRI) [2]; dosage 320 g/ha) was 100%, the “Post-emergence action against VERPE in %” value ([3]; dosage 80 g/ha) was 80% and the “Post-emergence action against SETVI in %” value (Setaria viridis (SETVI) [4]; dosage 80 g/ha) was 90%. For the same compound, the “Post-emergence action against LOLRI in %” value (Lolium rigidum (LOLRI) [5]; dosage 80 g/ha) was 80%, the “Post-emergence action against PHBPU in %” value ([6]; dosage 80 g/ha) was 90% and the “Pre-emergence action against ABUTH” value [7, 26] was 80%. The “Post-emergence action against ECHCG in %” value ([8]; dosage 80 g/ha) was 90%, the “Pre-emergence action against VERPE in %” value ([9]; dosage 80 g/ha) was 100% and the “Pre-emergence action against VERPE in %” value ([9]; dosage 320 g/ha) was 100%. The “Pre-emergence action against ECHCG in %” value ([10]; dosage 320 g/ha) was 90%, the “Post-emergence action against ALOMY in %” value ([11]; 80 g/ha) was 100% and the “Pre-emergence action against VIOTR in %” value (Viola tricolor (VIOTR) [12]; 320 g/ha, Viola tricolor) was 100%. For the same compound, the “Pre-emergence action against VIOTR in %” value (Viola tricolor (VIOTR) [12]; dosage 80 g/ha) was 100%, the “Pre-emergence action against PHBPU in %” value [13] was 90% and the “Pre-emergence action against AVEFA in %” value (Avena fatua (AVEFA) [14]) was 90%. The “Pre-emergence action against AMARE in %” value ([15]; 80 g/ha) was 90%, the “Pre-emergence action against AMARE in %” value ([15]; 320 g/ha) was 100% and the “Post-emergence action against AMARE in %” value [16, 27] was 80%. For the same compound, the “Pre-emergence action against POLCO in %” value ([17]; dosage 80 g/ha) was 80%, the “Pre-emergence action against POLCO in %” value ([17]; dosage 320 g/ha) was 90% and the “Post-emergence action against ABUTH in %” value ([18]; 80 g/ha) was 90%. The “Post-emergence action against AVEFA in %” value (Avena fatua (AVEFA) [19]; 80 g/ha) was 90%, the “Pre-emergence action against MATIN in %” value ([20]; dosage 80 g/ha) was 90% and the “Pre-emergence action against MATIN in %” value ([20]; dosage 320 g/ha) was 90%. For the same compound, the “Post-emergence action against MATIN in %” value ([21]; dosage 80 g/ha) was 80%, the “Pre-emergence action against SETVI in %” value (Setaria viridis (SETVI) [22]; dosage 80 g/ha) was 80% and the “Pre-emergence action against SETVI in %” value (Setaria viridis (SETVI) [22]; dosage 320 g/ha) was 100%. For the same compound, the “Post-emergence action against POLCO in %” value ([23]; dosage 80 g/ha) was 80%.
`COC(=O)[C@@H](C)Oc1nn(-c2ncccc2F)c(-c2ccc(F)nc2)c1I` [Example I-341] was tested, and the “Pre-emergence action against ALOMY” value ([1]; 320 g/ha) was 100%, the “Post-emergence action against ZEAMX in %” value (Zea mays (ZEAMX); crop plant compatibility, 80 g/ha, effect vs untreated controls) was 0% and the “Post-emergence action against ORYSA in %” value (Oryza sativa (ORYSA); [25]) was 0%. For the same compound, the “Pre-emergence action against LOLRI in %” value (Lolium rigidum (LOLRI) [2]; dosage 80 g/ha) was 100%, the “Pre-emergence action against LOLRI in %” value (Lolium rigidum (LOLRI) [2]; dosage 320 g/ha) was 100% and the “Post-emergence action against VERPE in %” value ([3]; 320 g/ha, VERPE) was 90%. The “Post-emergence action against VERPE in %” value ([3]; dosage 80 g/ha) was 90%, the “Post-emergence action against SETVI in %” value (Setaria viridis (SETVI) [4]; dosage 80 g/ha) was 80% and the “Post-emergence action against SETVI in %” value (Setaria viridis (SETVI) [4]; dosage 320 g/ha) was 80%. For the same compound, the “Post-emergence action against LOLRI in %” value (Lolium rigidum (LOLRI) [5]; dosage 80 g/ha) was 90%, the “Post-emergence action against LOLRI in %” value (Lolium rigidum (LOLRI) [5]; dosage 320 g/ha) was 90% and the “Post-emergence action against PHBPU in %” value ([6]; dosage 80 g/ha) was 90%. For the same compound, the “Post-emergence action against PHBPU in %” value ([6]; dosage 320 g/ha) was 100%, the “Pre-emergence action against ABUTH” value ([7]; 80 g/ha, scored visually after about 3 weeks vs untreated controls, 0% = like control plants) was 90% and the “Pre-emergence action against ABUTH” value [7, 26] was 90%. The “Post-emergence action against ECHCG in %” value ([8]; dosage 80 g/ha) was 100%, the “Post-emergence action against ECHCG in %” value ([8]; dosage 320 g/ha) was 100% and the “Pre-emergence action against VERPE in %” value ([9]; dosage 320 g/ha) was 100%. For the same compound, the “Pre-emergence action against ECHCG in %” value ([10]; dosage 80 g/ha) was 80%, the “Pre-emergence action against ECHCG in %” value ([10]; dosage 320 g/ha) was 100% and the “Post-emergence action against ALOMY in %” value ([11]; 80 g/ha) was 80%. The “Post-emergence action against ALOMY in %” value ([11]; 320 g/ha) was 100%, the “Pre-emergence action against VIOTR in %” value (Viola tricolor (VIOTR) [12]; 320 g/ha, Viola tricolor) was 100% and the “Pre-emergence action against VIOTR in %” value (Viola tricolor (VIOTR) [12]; dosage 80 g/ha) was 100%. The “Pre-emergence action against PHBPU in %” value [13] was 90%, the “Pre-emergence action against AVEFA in %” value (Avena fatua (AVEFA) [14]) was 90% and the “Pre-emergence action against AMARE in %” value ([15]; 80 g/ha) was 100%. For the same compound, the “Pre-emergence action against AMARE in %” value ([15]; 320 g/ha) was 100%, the “Post-emergence action against AMARE in %” value [16, 27] was 80% and the “Post-emergence action against AMARE in %” value ([16]; 320 g/ha, visual rating about 3 weeks after treatment) was 80%. For the same compound, the “Pre-emergence action against POLCO in %” value ([17]; dosage 80 g/ha) was 90%, the “Pre-emergence action against POLCO in %” value ([17]; dosage 320 g/ha) was 100% and the “Post-emergence action against ABUTH in %” value ([18]; 80 g/ha) was 80%. For the same compound, the “Post-emergence action against ABUTH in %” value ([18]; 320 g/ha) was 90%, the “Post-emergence action against VIOTR in %” value (Viola tricolor (VIOTR) [24]; 80 g/ha) was 80% and the “Post-emergence action against VIOTR in %” value (Viola tricolor (VIOTR) [24]; 320 g/ha) was 80%. The “Post-emergence action against AVEFA in %” value (Avena fatua (AVEFA) [19]; 80 g/ha) was 80%, the “Post-emergence action against AVEFA in %” value (Avena fatua (AVEFA) [19]; 320 g/ha) was 80% and the “Pre-emergence action against MATIN in %” value ([20]; dosage 80 g/ha) was 90%. The “Pre-emergence action against MATIN in %” value ([20]; dosage 320 g/ha) was 100%, the “Post-emergence action against MATIN in %” value ([21]; dosage 320 g/ha) was 90% and the “Pre-emergence action against SETVI in %” value (Setaria viridis (SETVI) [22]; dosage 80 g/ha) was 80%. For the same compound, the “Pre-emergence action against SETVI in %” value (Setaria viridis (SETVI) [22]; dosage 320 g/ha) was 100%, the “Post-emergence action against POLCO in %” value ([23]; dosage 80 g/ha) was 80% and the “Post-emergence action against POLCO in %” value ([23]; dosage 320 g/ha) was 80%.
